The record followed here is patent US9968565B2, “Method for protection and improvement of liver health with meso-zeaxanthin compositions” (OMNIACTIVE HEALTH TECHNOLOGIES LIMITED, priority 2015, dated 2018).

This experiment has as its system HepG2 cells. In words: In vitro fatty liver model, lipid content in oleic acid-treated HepG2 hepatocytes (Adipored staining). In kind it is cell-based. To be noted: HepG2, 1.5 mM Oleic Acid + 100 uM. As to the method: HepG2 cells were seeded at a density of 5×10^4 cells/mL in 24 well plates and cultured to 100% confluency. Once 100% confluent, HepG2 Growth Media (ATCC-formulated Eagle's Minimum Essential Media (EMEM) 500 mL+10% FBS-50 mL+1% pen/strep antibiotic-5 mL) was […] fetal bovine serum (FBS) Free Growth Media (1 mL per well) for 24 hours. Following 24 hour FBS-free conditions, cells were treated with differing concentrations of Oleic Acid (0.5, 1.0, 1.5, 2.0 mM; Sigma O3008) to induce fatty liver conditions. From preliminary Adipored Staining data, 1.5 mM Oleic Acid (OA) was deemed the most appropriate concentration of OA to induce maximum steatosis (accumulation of large vacuoles of triglyceride fat in liver cells—thus it is abnormal retention of lipids within a cell) while remaining non-cytotoxic.

Consider `C[C@@H]1O[C@@H](OC[C@H]2O[C@@H](Oc3c(-c4ccc(O)c(O)c4)oc4cc(O)cc(O)c4c3=O)[C@H](O)[C@@H](O)[C@@H]2O)[C@H](O)[C@H](O)[C@H]1O` [Rutin], for which the “% Decrease in Lipid Content” value is listed as 22% and the “Lipid Content” value was 23088.67.
